Series [1] can be described thus: First order rate data for the hydrolysis of compound in 0.05 M phosphate buffer pH 7.4 hydrolysis medium; Half-life in minutes. The class given is ADME.
Series [2] can be described thus: First order rate data for the hydrolysis of compound in rat plasma hydrolysis medium; Half-life in minutes. The class given is ADME.
A short description of series [3]: First order rate data for the hydrolysis of compound in dog plasma hydrolysis medium; Half-life in minutes. Type of series: ADME, Canis lupus familiaris.
A short description of series [4]: First order rate data for the hydrolysis of compound in 0.1 M hydrochloric acid pH 1 hydrolysis medium; Half-life in minutes. Type of series: ADME.
Series [5] in a line: First order rate data for the hydrolysis of compound in 0.1 M hydrochloric acid pH 1 hydrolysis medium (adinotes no detectable hydrolysis after 48 h); Half-life in minutes. The class given is ADME.

The results in this text go back to ChEMBL document CHEMBL1129662, “Investigation of (Oxodioxolenyl)methyl carbamates as nonchiral bioreversible prodrug moieties for chiral amines” (J Med Chem, 1996).

Where only a bound is given, the exact number is not on record here.

`COc1ccc(-c2oc(=O)oc2COC(=O)NCCc2ccc(OC)c(OC)c2)cc1`: the half-life (commonly the time needed for the level to fall by half in the phase considered) in series [1] worked out at 3.45 h; in series [2] it was 0.0333 h; in series [3], 0.233 h; in series [4], 53 h.

On to `COc1ccc(CCNC(=O)OCc2oc(=O)oc2C)cc1OC`, for which the half-life in series [1] was 4.3 h; in series [2] it was 0.183 h; in series [5], more than 50 h.

Take `COc1ccc(CCNC(=O)OCc2oc(=O)oc2-c2ccccc2)cc1OC`: the half-life in series [1] stood at 2.23 h; in series [2], 0.0333 h; in series [3], 0.183 h; in series [4], 59.2 h.
